Experimental data from patent publication US10342881B2, “Manganese-oxo clusters as contrast agents for magnetic resonance imaging” (Georgetown University, priority 2008, dated 2019).

What was measured:
[1] = tissues outside of liver and kidney; cited from earlier work
[2] = NMR relaxivity from slope of 1/T1 or 1/T2 versus concentration; format: physicochemical; settings: for r1 / r2: D2O and dilute acetic acid, 500 MHz
Protocol: Fresh samples for NMR measurements were prepared immediately prior to use. Both the cluster and cluster coated beads were dissolved in distilled water, and filtered via syringe filter. T1 measurements were measured using the inversion recovery pulse sequence, in a field of 300 MHz or 500 MHz, at room temperature with a least squares fit to 10 data points. The T2 was obtained using a conventional spin echo sequence on a 300 MHz spectrometer and using Carr-Purcell-Meiboom-Gill (CPMG) sequence on 500 MHz Bruker spectrometer. Relaxivity was determined from the slope of a plot of 1/T1 or 1/T2 versus concentration of Mn-12 and Mn-12 coated beads. The cluster concentration was determined by atomic absorption of Mn.

[3] = Solubility and stability of Mn-12 in water and aqueous acetic acid; format: physicochemical
From the text: Based on simple criteria, Mn-12 appears ideal as a contrast agent.

[4] = RT, per mM cluster, listed as Mn-12

Row | stability in presence of excess carboxylic acid ([3]; aqueous acetic acid solutions, re-isolated after many hours) | Molecule | effect on T1 and T2 in tissues [1] | temperature dependence of relaxivity ([2]; 37° C. versus room temperature) | r1 ([2]; 37° C.) | r2 ([2]; 37° C.) | r1 ([2]; RT, per mM cluster) | r2 ([2]; RT, per mM cluster) | r1 [2, 4] | r2 [2, 4] | field dependence of relaxivity ([2]; measurements at 300, 400, and 500 MHz) | behaviour upon dissolution in distilled water ([3]; distilled water)
1 | – | Cc1[nH+]cc(COP(=O)([O-])[O-])c(CN(CCN(CC(=O)[O-])Cc2c(COP(=O)([O-])O)c[nH+]c(C)c2O)CC(=O)[O-])c1O.[Mn].[Na+].[Na+].[Na+] [Mn-DPDP, manganese dipyrodoxaldiphosphate] | only limited effect on T1 and T2 | – | – | – | – | – | – | – | – | –
2 | stable in aqueous acetic acid solutions | [Mn12O12(O2CCH3)16 (H2O)4] [Mn12O12Ac16] | – | decreased at higher temperatures | 2.7 ± 0.1 mM⁻¹ s⁻¹ | 34 ± 1 mM⁻¹ s⁻¹ | 3.0 ± 0.1 mM⁻¹ s⁻¹ | 48 ± 1 mM⁻¹ s⁻¹ | 3.0 ± 0.1 mM⁻¹ s⁻¹ | 48 ± 1 mM⁻¹ s⁻¹ | increase with higher fields | within minutes a flocculent material forms
